Results reported in PMC9875641, “Ophthalmic Solution of Smart Supramolecular Peptides to Capture Semaphorin 4D against Diabetic Retinopathy” (Advanced Science, 2022).

How the values were obtained:
pericytes = assay: Transwell migration of pericytes induced by recombinant Sema4D; format: cell-based, mouse; conditions: transwell assay, n = 3
Cy5-labeled sSema4D = target: T1, Cy5-labeled sSema4D (Homo sapiens, UniProt Q92854); assay: CLSM recognition and capture of sSema4D; format: binding; conditions: FITC-labeled SSP with Cy5-labeled sSema4D, 6 h
T1 construct: purchased Novoprotein Ltd. (Suzhou, China)
T1 sequence (Q92854 22-734 limits assumed): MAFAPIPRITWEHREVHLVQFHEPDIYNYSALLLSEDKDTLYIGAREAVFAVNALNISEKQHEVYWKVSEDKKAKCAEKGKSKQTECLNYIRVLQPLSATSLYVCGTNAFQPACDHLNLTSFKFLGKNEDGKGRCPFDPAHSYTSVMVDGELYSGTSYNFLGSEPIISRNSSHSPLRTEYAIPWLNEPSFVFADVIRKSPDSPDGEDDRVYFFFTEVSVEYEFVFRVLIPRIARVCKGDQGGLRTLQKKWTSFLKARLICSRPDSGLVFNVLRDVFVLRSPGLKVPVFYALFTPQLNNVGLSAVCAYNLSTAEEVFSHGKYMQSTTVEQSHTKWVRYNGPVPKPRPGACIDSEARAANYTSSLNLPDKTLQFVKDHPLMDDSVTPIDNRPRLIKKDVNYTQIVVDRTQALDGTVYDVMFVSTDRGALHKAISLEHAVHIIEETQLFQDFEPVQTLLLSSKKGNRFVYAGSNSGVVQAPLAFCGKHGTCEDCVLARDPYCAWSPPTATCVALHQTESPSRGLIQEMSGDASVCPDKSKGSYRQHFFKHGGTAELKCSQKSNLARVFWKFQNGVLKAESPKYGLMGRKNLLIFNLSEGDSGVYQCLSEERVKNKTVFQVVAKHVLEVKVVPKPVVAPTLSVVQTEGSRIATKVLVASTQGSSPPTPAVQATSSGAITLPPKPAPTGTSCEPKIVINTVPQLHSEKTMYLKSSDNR
Experimental: FITC‐labeled SSP‐1 or SSP‐2 and Cy5‐labeled sSema4D proteins were synthesized. Cy5‐labeled sSema4D were incubated with FITC‐labeled SSP‐1 and SSP‐2 nanostructure solutions for 6 h, respectively. […]
a resolution of 1.0 nm and a scanning speed of 300 nm/min. For each measurement, three spectra were collected and averaged.
CLSM observation. Sema4D protein was purchased from Novoprotein Ltd. (Suzhou, China). Sema4D protein cultured with SSP-1 or SSP-2 nanomaterials (30 μM) for 4 h were imaged using a Zeiss LSM710 confocal laser scanning microscope
(Ultra-VIEWVox, PerkinElmer). The parameters of confocal laser scanning microscope was a 40× objective lens.
Patient. Vitreous humor samples of DR patients were obtained immediately before intravitreal injection of anti-VEGF agents. Control vitreous humor samples were collected from nondiabetic patients receiving surgery for idiopathic macular hole. All of the human vitreous humor samples were collected based on informed consent. The vitreous samples were centrifuged at 4°C, and the supernatants were aliquoted into several sterile tubes and stored at -80°C. The procedure was approved by an ethics committee of Tongji Medical College, Huazhong University of Science and Technology, and strictly followed the Declaration of Helsinki guidelines.
Cell culture. […]

Zeta potential of SSPs = format: physicochemical; conditions: self-assembled SSP under aqueous condition
From the text: Artificial tears containing SSPs were developed and dropped into eyes. SSPs accumulated in the vitreous cavity. To examine the behavior of SSPs monomer in artificial tear, it was fast injected into water. Under the aqueous condition, the SSPs self‐assembled into spherical NPs or nanorods, a function of its to C16 and FFVLK domains with a hydrophobic unit. The morphology of SSP‐1 was NPs with the average size of 44.8 ± 2.9 nm. […] Besides, the zeta potential of SSP‐1 and SSP‐2 was positive charged with the value of 45.7 and 40.2 mV, respectively (Figure 3C). The positive charged SSPs penetrate blood‐eye barrier well.
In addition, KLVFF sequence, a sheet structure with strong hydrogen‐bonding was introduced into SSPs, we could distinctly observe the secondary structure of SSPs by circular dichroism (CD) spectroscopy. […] The percentage of β‐sheet after incubation with sSema4D in SSP‐1 and SSP‐2 were 85.6% and 42.3%, respectively, indicative of a highly organized packing of NFs in SSP‐1. […] The high percentage of β‐sheet structure in NFs stabilized the formation of nanostructure networks, due to its strong hydrogen‐bonding KLVFF sequence. Moreover, we carried out the cytotoxicity of SSP‐1 and SSP‐2 by using a standard CCK‐8 (Figure 3D). […] Finally, we investigated the recognition of sSema4D and SSP‐1 and SSP‐2 by confocal laser scanning microscope (CLSM).

sSema 4D = target: T2, sSema 4D (Homo sapiens, UniProt Q92854); assay: ELISA binding affinity of TPs and SSPs to sSema 4D (and BSA)
T2 construct: purchased Novoprotein Ltd. (Suzhou, China)
T2 sequence (Q92854 22-734 limits assumed): T1 sequence (Q92854 22-734 limits assumed)
Experimental: To carry out the library screening, we first labeled the sSema4D with fluorescein isothiocyanate isomer (FITC), as shown in Figure 2E. Next, ≈10^6 beads library was incubated with FITC‐labeled sSema4D for 6 hours. The beads were thoroughly washed with DMF, water and methanol. Finally, under the fluorescence microscope, the beads with […] to sSema4D or FITC‐labeled sSema4D through noncovalent bonding were identified in Figure 2F. We selected twelve strongest putative fluorescent beads by physical separation. Subsequently, the corresponding peptides were cleaved off with BrCN from beads and analyzed by automatic Edman sequencing. The structures and sequence of transformable peptides (TPs) were determined and summarized (Figure S2, Supporting Information). TP‐1 to TP‐12 were resynthesized into solid phase and purified by high performance liquid chromatography (HPLC). The binding affinity of TPs toward sSema 4D was measured by enzyme‐linked immunosorbent assay (ELISA) and surface plasmon resonance imaging (SPRi). […] TP‐2 and TP‐7 were selected as the candidate TP binding sSema 4D to construct SSP. Subsequent SSP monomers (SSP‐1, sequence: C16‐FFVLK‐KQKRPRH; SSP‐2 C16‐FFVLK‐KNKAAKG) were synthesized and characterized by HPLC and Matrix‐assisted laser desorption/ionization time‐of‐flight mass spectrometry (MALDI‐TOF‐MS).

recognition and trapping of sSema4D (merge images) (Cy5-labeled sSema4D) | zeta potential (Zeta potential of SSPs) [mV] | Substance | recombinant Sema4D protein-induced pericyte migration (pericytes) | binding affinity with sSema4D on ELISA, compared with TPs (sSema 4D)
could completely cover the sSema4D | 40.2 | C16‐FFVLK‐KNKAAKG [SSP-2, smart supramolecular peptide, C16‐FFVLK‐KNKAAKG, self-assembling, captures sSema4D] | reduced | higher binding affinity compared with TPs
could completely cover the sSema4D | 45.7 | C16‐FFVLK‐KQKRPRH [SSP-1, smart supramolecular peptide, C16‐FFVLK‐KQKRPRH, self-assembling, captures sSema4D] | reduced | higher binding affinity compared with TPs
